The source of these data is ChEMBL document CHEMBL5604063, “ASAP - DENV-2 NS2B-NS3 protease fluorescence dose response” (2024).

The target in this experiment is Genome polyprotein (dengue virus type 2, UniProt P29990). The format is functional, Thailand/16681/1984.

Where “and” joins values, the source holds several entries; their conditions need not be identical. Equal values may be shown once.

Sequence of Genome polyprotein (P29990 1346-1475 limits assumed): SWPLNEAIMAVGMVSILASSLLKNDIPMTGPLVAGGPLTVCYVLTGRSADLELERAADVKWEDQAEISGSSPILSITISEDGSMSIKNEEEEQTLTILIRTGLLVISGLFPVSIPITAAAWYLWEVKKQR
Sequence of Genome polyprotein (P29990 1476-2093 limits assumed): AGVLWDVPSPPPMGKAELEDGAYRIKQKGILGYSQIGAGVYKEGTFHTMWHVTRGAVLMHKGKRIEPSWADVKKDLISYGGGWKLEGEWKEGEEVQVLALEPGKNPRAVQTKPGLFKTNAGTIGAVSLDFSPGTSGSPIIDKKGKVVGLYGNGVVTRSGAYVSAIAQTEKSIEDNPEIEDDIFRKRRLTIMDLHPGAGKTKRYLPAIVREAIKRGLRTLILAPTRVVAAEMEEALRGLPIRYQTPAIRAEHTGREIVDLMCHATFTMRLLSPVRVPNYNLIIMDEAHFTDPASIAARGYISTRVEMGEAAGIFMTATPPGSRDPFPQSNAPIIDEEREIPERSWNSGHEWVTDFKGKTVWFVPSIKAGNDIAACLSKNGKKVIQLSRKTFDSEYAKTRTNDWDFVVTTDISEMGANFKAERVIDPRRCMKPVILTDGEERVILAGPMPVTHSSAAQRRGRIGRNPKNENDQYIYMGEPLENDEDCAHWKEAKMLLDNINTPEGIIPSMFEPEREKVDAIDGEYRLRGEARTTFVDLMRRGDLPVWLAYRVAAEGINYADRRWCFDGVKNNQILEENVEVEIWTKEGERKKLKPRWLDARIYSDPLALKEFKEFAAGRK

By IC50 is commonly meant the point on the concentration scale where inhibition reaches its midpoint. Low readings indicate higher potency, high ones lower potency. On to `O=C(N[C@H](C(=O)NCc1cccc(CC(F)(F)F)c1)c1ccc(OCc2ccccc2)cc1)OCc1ccccc1`, for which the 50% inhibitory concentration (IC50) is more than 99.5 µM. For `CC[C@@H](C)c1nc(C)cc(N2CCC(n3ncc(N)c3C(F)(F)F)CC2)n1` the value was more than 99.5 µM; for `Cc1ccc([C@@H](NC(=O)OCc2ccccc2)C(=O)Nc2cccc(CN)c2)cc1C(F)(F)F`, more than 99.5 µM; for `CCn1c(=O)c(N2C[C@@H](CO)[C@H](c3cncn3C)C2)nc2ccccc21`, more than 99.5 µM.

Take `NC(=O)c1cccnc1N1CCCN(c2nc(-c3cc(Cl)cc(Cl)c3)no2)CC1`: the 50% inhibitory concentration (IC50) was more than 99.5 µM.

`O=c1[nH]ncn1C1CCN(Cc2c[nH]c3ccccc23)CC1` gave a half-inhibitory concentration (IC50) of more than 99.5 µM. Compound `Cc1cc(C)c([C@@H](NC(=O)OCc2ccccc2)C(=O)Nc2cccc(CN)c2)c(C)c1` registered a half-inhibitory concentration (IC50) of more than 99.5 µM. `CCn1c(=O)c(N2CC[C@H](N3CCCS3(=O)=O)C2)nc2ccccc21` registered an IC50 of more than 99.5 µM. Under `CCc1cc(COc2ccc(S(=O)(=O)Nc3ccc(Cl)cc3C(=O)O)cc2)no1` stands 45.5 µM; under `CS(=O)(=O)NCc1ccc(CNC(=O)[C@@H](NC(=O)OCc2ccccc2)c2ccc(OCc3ccccc3)cc2)cc1`, more than 99.5 µM; under `O=Cc1ccc(F)c(C(=O)N2CCN(C3=NCCCN3)CC2)c1`, more than 99.5 µM. Under `CCn1cnnc1COc1ccc(S(=O)(=O)Nc2ccc(Cl)cc2C(=O)O)cc1` stands more than 99.5 µM; under `COc1ccc(CNC(=O)[C@@H](NC(=O)OCc2ccccc2)c2ccc(OCc3ccccc3)cc2)cn1`, more than 99.5 µM; under `CC(C)n1cc(CNC(=O)[C@@H](NC(=O)OCc2ccccc2)c2ccc(OCc3ccccc3)cc2)cn1`, more than 99.5 µM.

`Cc1ocnc1COc1ccc(S(=O)(=O)Nc2ccc(Cl)cc2C(=O)O)cc1` had an IC50 of more than 99.5 µM. Under `COC(=O)[C@@H](C)NC(=O)c1cc(Cl)ccc1NS(=O)(=O)c1ccc(Oc2ccccc2Cl)cc1` stands 39 µM; under `O=C(O)c1cc(Cl)ccc1CNS(=O)(=O)c1ccc(Oc2ccccc2Cl)cc1`, 98.8 µM.

With `COc1cncc(CNC(=O)[C@@H](NC(=O)OCc2ccccc2)c2ccc(OCc3ccccc3)cc2)c1`, the half-maximal inhibitory concentration (IC50) is more than 99.5 µM. For `O=C(N[C@@H](C(=O)Nc1ccncc1)c1ccc(OCc2ccccc2)cc1)OCc1ccccc1` the value was more than 99.5 µM; for `O=C(O)c1cc(Cl)ccc1NS(=O)(=O)c1ccc(OCc2ccccn2)cc1`, more than 99.5 µM; for `O=C(O)Cn1ccnc(N2CC[C@@H](CO)C2)c1=O`, more than 99.5 µM. `CN1CCc2ccc(C(=O)N3CCNc4ccccc4C3)cc2C1` registered a half-inhibitory concentration (IC50) of more than 99.5 µM. For `NS(=O)(=O)c1ccc(N2CCC=C(c3cccc(O)c3)C2)c2ncccc12` the value was more than 99.5 µM. Under `CCn1c(=O)c(N2C[C@@H]3CCO[C@]3(COC)C2)nc2ccccc21` stands more than 99.5 µM; under `CN(C)Cc1ccccc1CNC(=O)[C@@H](NC(=O)OCc1ccccc1)c1ccc(OCc2ccccc2)cc1`, more than 99.5 µM.

As for `NCc1cccc(NC(=O)[C@@H](NC(=O)OCc2ccccc2)c2ccc(C(F)(F)F)cc2)c1`, the IC50 is 64.3 µM. In turn, `CN(C)Cc1cncc(NC(=O)[C@@H](NC(=O)OCc2ccccc2)c2ccc(OCc3ccccc3)cc2)c1` returned a concentration for half-maximal inhibition (IC50) of more than 99.5 µM. `O=C(N[C@H](C(=O)NCc1ccc(F)cc1)c1ccc(OCc2ccccc2)cc1)OCc1ccccc1` came in with an IC50 of more than 99.5 µM. For `CCn1c(=O)c(N2CC[C@@]3(COC(=O)N3)C2)nc2ccccc21` the value was more than 99.5 µM; for `CN1CCN(Cc2ccccc2CNC(=O)[C@@H](NC(=O)OCc2ccccc2)c2ccc(OCc3ccccc3)cc2)CC1`, more than 99.5 µM; for `Cc1ccc2c(c1)CN(C(=O)c1ccc(C3(CN)CC3)cc1)C(C)(C)C2`, more than 99.5 µM. For `CN(C)CCOc1cccc(CNC(=O)[C@@H](NC(=O)OCc2ccccc2)c2ccc(OCc3ccccc3)cc2)c1` the value was more than 99.5 µM. For `Cc1cnn(-c2cccc(-c3cccc(C4(CN)CC4)c3)c2)c1` the value was more than 99.5 µM. In the case of `Cc1ncccc1-c1ccc([C@@H](NC(=O)OCc2ccccc2)C(=O)Nc2cccc(CN)c2)cc1`, the half-maximal inhibitory concentration (IC50) was more than 99.5 µM.

`O=C(N[C@@H](C(=O)Nc1ccc2c(n1)CNC2)c1ccc(OCc2ccccc2)cc1)OCc1ccccc1`: the half-maximal inhibitory concentration (IC50) was more than 99.5 µM.

`O=C(N[C@@H](C(=O)NCc1cccnc1)c1ccc(OCc2ccccc2)cc1)OCc1ccccc1` came in with a half-inhibitory concentration (IC50) of more than 99.5 µM. Under `O=C(O)c1cc(Cl)cc(F)c1NS(=O)(=O)c1ccc(Oc2ccccc2Cl)cc1` stands 18.6 µM; under `CCOCCNC(=O)c1cc(Cl)ccc1NS(=O)(=O)c1ccc(Oc2ccccc2Cl)cc1`, 20 µM and 20.5 µM. Under `CS(=O)(=O)c1cccc(CNC(=O)[C@@H](NC(=O)OCc2ccccc2)c2ccc(OCc3ccccc3)cc2)c1` stands more than 99.5 µM; under `NCCc1ccc(CNC(=O)[C@@H](NC(=O)OCc2ccccc2)c2ccc(OCc3ccccc3)cc2)cc1`, 21.2 µM and 21.7 µM. For `Cn1c(C(=O)N2CCCc3ccc(C(F)F)cc32)cc2c1CCNC2` the value was more than 99.5 µM. Take `NCCCc1ccc(C(=O)N2CC(c3cccc(Br)c3)C2)cc1`: the IC50 was more than 99.5 µM.

The compound `N[C@H]1CC[C@H](CNC(=O)[C@@H](NC(=O)OCc2ccccc2)c2ccc(OCc3ccccc3)cc2)CC1` registered a half-inhibitory concentration (IC50) of more than 99.5 µM.

Turning to `CN(C(=O)c1ccc2c(c1)[C@H](CN)CCC2)C1CCN(CC(F)F)CC1`, the IC50 is more than 99.5 µM. Under `NCc1cccc(NC(=O)[C@@H](NC(=O)c2cccnc2)c2ccc(OCc3ccccc3)cc2)c1` stands more than 99.5 µM; under `CCn1c(=O)c(N2CC[C@H](NC(=O)NC3CC3)C2)nc2ccccc21`, more than 99.5 µM; under `Cc1cc(C=O)c(O)c(C(=O)N2CC[C@H](CN(C)C)C2)c1`, more than 99.5 µM.

As for `C[C@@H](Oc1ccc(S(=O)(=O)Nc2ccc(Cl)cc2C(=O)O)cc1)c1ccccc1F`, the IC50 was determined as 8.2 µM. For `Cc1n[nH]c2cc(C(=O)N3CCC(C)(NC(=O)[C@H]4C[C@H](N(C)C)C4)CC3)ccc12`, the IC50 is more than 99.5 µM.

`CN1CCC(c2nc(C(F)(F)F)n3c2CN(c2cccc(C(N)=O)n2)CC3)CC1` registered an IC50 of more than 99.5 µM.

With `CCn1c(=O)c(N2C[C@H]3COC(C)(C)OC[C@H]3C2)nc2ccccc21`, the 50% inhibitory concentration (IC50) is more than 99.5 µM.

`CN1CCc2ncc(NC(=O)[C@@H](NC(=O)OCc3ccccc3)c3ccc(OCc4ccccc4)cc3)cc2C1`: the 50% inhibitory concentration (IC50) is more than 99.5 µM. For `OCc1ccc(Cl)c(N2CCN(c3ccc4[nH]cnc4c3)CC2)n1` the value was more than 99.5 µM; for `CCn1c(=O)c(N2C[C@@H]3[C@H](C2)[C@H]3C(=O)OC)nc2ccccc21`, more than 99.5 µM. Under `CC(C)c1cnc(COc2ccc(S(=O)(=O)Nc3ccc(Cl)cc3C(=O)O)cc2)o1` stands 55.7 µM.

Take `O=C(N[C@@H](C(=O)NCc1ccc(CN2CCCC2)cc1)c1ccc(OCc2ccccc2)cc1)OCc1ccccc1`: the concentration for half-maximal inhibition (IC50) is more than 99.5 µM. Under `CN(C)Cc1ccc(CNC(=O)[C@@H](NC(=O)OCc2ccccc2)c2ccc(OCc3ccccc3)cc2)cc1` stands more than 99.5 µM; under `O=C(N[C@@H](C(=O)NCc1cccc(CN2CCCCC2)c1)c1ccc(OCc2ccccc2)cc1)OCc1ccccc1`, more than 99.5 µM; under `NS(=O)(=O)c1cc(F)c(Cl)cc1N1CCN(c2ccnc(O)c2)CC1`, more than 99.5 µM. Under `CCn1c(=O)c(N2CC[C@@]23CCN(C)C3)nc2ccccc21` stands more than 99.5 µM.

`NCc1ccccc1C1CCN(C(=O)[C@H]2CCN3CC[C@H]2C3)CC1`: the IC50 was more than 99.5 µM. For `CN(C)Cc1cc(CNC(=O)[C@@H](NC(=O)OCc2ccccc2)c2ccc(OCc3ccccc3)cc2)ccc1F` the value was more than 99.5 µM; for `Cc1ccc([C@@H](NC(=O)OCc2ccccc2)C(=O)Nc2cccc(CN)c2)cc1C`, more than 99.5 µM; for `CS(=O)(=O)NCc1cccc(CNC(=O)[C@@H](NC(=O)OCc2ccccc2)c2ccc(OCc3ccccc3)cc2)c1`, more than 99.5 µM.

For the compound `C[C@@H](O)c1cccc(N2CCC(c3nc(N)ncc3F)CC2)n1`, the half-maximal inhibitory concentration (IC50) is more than 99.5 µM. For `O=C(O)c1ncc(F)cc1NS(=O)(=O)c1ccc(Oc2ccccc2Cl)cc1` the value was 61.7 µM; for `CN(C)C(=O)[C@@H](NC(=O)OCc1ccccc1)c1ccc(OCc2ccccc2)cc1`, more than 99.5 µM. For `C[C@@H]1c2cccnc2CCN1Cc1cccc(CN(C)C)c1` the value was more than 99.5 µM; for `O=C(O)c1cc(Cl)ccc1NS(=O)(=O)c1ccc(OCc2cccnc2)cc1`, more than 99.5 µM; for `CCn1c(=O)c(N2CC[C@@]3(CCCN3C)C2)nc2ccccc21`, more than 99.5 µM. For `CN(C)[C@H]1CCc2cc(-c3cccc(N4CCNC4=O)c3)ccc2NC1` the value was more than 99.5 µM; for `O=C(N[C@H](C(=O)NCc1cccc(CO)c1)c1ccc(OCc2ccccc2)cc1)OCc1ccccc1`, more than 99.5 µM; for `C[C@@H](NC(=O)c1cc(Cl)ccc1NS(=O)(=O)c1ccc(Oc2ccccc2Cl)cc1)C(=O)O`, more than 99.5 µM. On to `O=C(O)c1cc(Cl)c(F)cc1NS(=O)(=O)c1ccc(Oc2ccccc2)cc1`, for which the IC50 amounted to 13.1 µM. In the case of `Cc1cc(CNC(=O)[C@@H](NC(=O)OCc2ccccc2)c2ccc(OCc3ccccc3)cc2)cc(C)n1`, the IC50 is more than 99.5 µM. Under `CC(C)(CO)NC(=O)[C@@H](NC(=O)OCc1ccccc1)c1ccc(OCc2ccccc2)cc1` stands more than 99.5 µM.

`CCn1c(=O)c(N2C[C@H]3CCCN3C(=O)[C@H]2C)nc2ccccc21` displayed an IC50 of more than 99.5 µM. For `O=C(N[C@@H](C(=O)Nc1ccccn1)c1ccc(OCc2ccccc2)cc1)OCc1ccccc1` the value was more than 99.5 µM; for `NCc1cccc(NC(=O)[C@H]2c3ccc(Br)cc3CCN2C(=O)OCc2ccccc2)c1`, more than 99.5 µM; for `CN1CCN(Cc2cccc(CNC(=O)[C@@H](NC(=O)OCc3ccccc3)c3ccc(OCc4ccccc4)cc3)c2)CC1`, more than 99.5 µM. Under `CCc1ccc([C@@H](NC(=O)OCc2ccccc2)C(=O)Nc2cccc(CN)c2)cc1` stands more than 99.5 µM; under `NCc1cccc(NC(=O)[C@@H](NC(=O)OCc2ccccc2)c2ccc(-c3cccc4c3CCO4)cc2)c1`, 27.8 µM; under `Cn1nc(C2CCN(C(=O)c3ccccc3CSc3nnc[nH]3)CC2)cc1O`, more than 99.5 µM. Under `Nc1ccc(CNC(=O)[C@@H](NC(=O)OCc2ccccc2)c2ccc(OCc3ccccc3)cc2)nc1` stands more than 99.5 µM; under `NCc1cccc(NC(=O)[C@@H](NC(=O)OCc2ccccc2)c2ccc(-c3cccc(F)c3)cc2)c1`, 8.05 µM and 6.08 µM and 6.21 µM.
